What was measured:
Type in all cases: functional
[1] = system: Streptococcus pneumoniae; assay: Antibacterial activity against penicillin-nonsusceptible Streptococcus pneumoniae clinical isolate by broth microdilution method
[2] = system: Streptococcus pneumoniae; assay: Antibacterial activity against penicillin-susceptible Streptococcus pneumoniae clinical isolate by broth microdilution method
[3] = system: Proteus mirabilis; assay: Antibacterial activity against Proteus mirabilis clinical isolate by broth microdilution method
[4] = system: Salmonella sp.; assay: Antibacterial activity against Salmonella sp. by broth microdilution method
[5] = system: Morganella morganii; assay: Antibacterial activity against Morganella morganii clinical isolate by broth microdilution method
[6] = system: Enterobacter cloacae; assay: Antibacterial activity against Enterobacter cloacae clinical isolate by broth microdilution method
[7] = system: Klebsiella oxytoca; assay: Antibacterial activity against Klebsiella oxytoca clinical isolate by broth microdilution method
[8] = system: Moraxella catarrhalis; assay: Antibacterial activity against Moraxella catarrhalis clinical isolate by broth microdilution method
[9] = system: Citrobacter koseri; assay: Antibacterial activity against Citrobacter diversus clinical isolate by broth microdilution method
[10] = system: Burkholderia cepacia; assay: Antibacterial activity against Burkholderia cepacia clinical isolate by broth microdilution method
[11] = system: Acinetobacter sp.; assay: Antibacterial activity against Acinetobacter sp. by broth microdilution method
[12] = system: Shigella sp.; assay: Antibacterial activity against Shigella sp. by broth microdilution method
[13] = system: Neisseria sp.; assay: Antibacterial activity against Neisseria sp. by broth microdilution method
[14] = system: Listeria monocytogenes; assay: Antibacterial activity against Listeria monocytogenes clinical isolate by broth microdilution method
[15] = system: Legionella pneumophila; assay: Antibacterial activity against Legionella pneumophila clinical isolate by broth microdilution method
[16] = system: Corynebacterium sp.; assay: Antibacterial activity against Corynebacterium sp. by broth microdilution method
[17] = system: Providencia rettgeri; assay: Antibacterial activity against Providencia rettgeri clinical isolate by broth microdilution method
[18] = system: Streptococcus pyogenes; assay: Antibacterial activity against Streptococcus pyogenes clinical isolate by broth microdilution method
[19] = system: Citrobacter freundii; assay: Antibacterial activity against Citrobacter freundii clinical isolate by broth microdilution method
[20] = system: Staphylococcus; assay: Antibacterial activity against coagulase-negative Staphylococcus clinical isolate by broth microdilution method
[21] = system: Klebsiella pneumoniae; assay: Antibacterial activity against extended-spectrum beta-lactamase producing Klebsiella pneumoniae clinical isolate by broth microdilution method
[22] = system: Klebsiella pneumoniae; assay: Antibacterial activity against Klebsiella pneumoniae clinical isolate by broth microdilution method
[23] = system: Klebsiella aerogenes; assay: Antibacterial activity against Enterobacter aerogenes clinical isolate by broth microdilution method
[24] = system: Proteus vulgaris; assay: Antibacterial activity against Proteus vulgaris clinical isolate by broth microdilution method
[25] = system: Pseudomonas aeruginosa; assay: Antibacterial activity against Pseudomonas aeruginosa clinical isolate by broth microdilution method
[26] = system: Stenotrophomonas maltophilia; assay: Antibacterial activity against Stenotrophomonas maltophilia clinical isolate by broth microdilution method
[27] = system: Haemophilus influenzae; assay: Antibacterial activity against Haemophilus influenzae clinical isolate by broth microdilution method
[28] = system: Escherichia coli; assay: Antibacterial activity against Escherichia coli clinical isolate by broth microdilution method
[29] = system: Serratia marcescens; assay: Antibacterial activity against Serratia marcescens clinical isolate by broth microdilution method
[30] = system: Enterococcus faecium; assay: Antibacterial activity against vancomycin-resistant Enterococcus faecium clinical isolate by broth microdilution method
[31] = system: Enterococcus faecium; assay: Antibacterial activity against linezolid-resistant Enterococcus faecium 03B1078 by broth microdilution method
[32] = system: Staphylococcus aureus; assay: Antibacterial activity against methicillin-susceptible Staphylococcus aureus clinical isolate by broth microdilution method
[33] = system: Staphylococcus aureus; assay: Antibacterial activity against methicillin-resistant Staphylococcus aureus clinical isolate by broth microdilution method
[34] = system: Enterococcus faecalis; assay: Antibacterial activity against vancomycin-resistant Enterococcus faecalis clinical isolate by broth microdilution method
[35] = system: Enterococcus faecium; assay: Antibacterial activity against vancomycin-susceptible Enterococcus faecium clinical isolate by broth microdilution method
[36] = system: Enterococcus faecium; assay: Antibacterial activity against linezolid-resistant Enterococcus faecium 03B1075 by broth microdilution method
[37] = system: Enterococcus faecium; assay: Antibacterial activity against linezolid-resistant Enterococcus faecium 03B1074 by broth microdilution method
[38] = system: Enterococcus faecium; assay: Antibacterial activity against linezolid-resistant Enterococcus faecium 03B1077 by broth microdilution method
[39] = system: Staphylococcus aureus; assay: Antibacterial activity against glycopeptide-intermediate Staphylococcus aureus clinical isolate by broth microdilution method
[40] = system: Staphylococcus epidermidis; assay: Antibacterial activity against methicillin-susceptible Staphylococcus epidermidis clinical isolate by broth microdilution method
[41] = system: Enterococcus faecium; assay: Antibacterial activity against linezolid-resistant Enterococcus faecium 03B1076 by broth microdilution method
[42] = system: Staphylococcus aureus; assay: Antibacterial activity against linezolid-resistant Staphylococcus aureus 01A1221 by broth microdilution method
[43] = system: Enterococcus faecium; assay: Antibacterial activity against linezolid-resistant Enterococcus faecium 03B1073 by broth microdilution method
[44] = system: Staphylococcus aureus; assay: Antibacterial activity against linezolid-resistant Staphylococcus aureus 01A1220 by broth microdilution method
[45] = system: Enterococcus faecalis; assay: Antibacterial activity against linezolid-resistant Enterococcus faecalis 03A1128 by broth microdilution method
[46] = system: Enterococcus faecalis; assay: Antibacterial activity against vancomycin-susceptible Enterococcus faecalis clinical isolate by broth microdilution method
[47] = system: Staphylococcus aureus; assay: Antibacterial activity against […] Staphylococcus aureus ATCC 29213 by broth microdilution method
[48] = system: Enterococcus faecalis; assay: Antibacterial activity against […] Enterococcus faecalis ATCC 29212 by broth microdilution method

CC1(C)S[C@@H]2[C@H](NC(=O)Cc3ccccc3)C(=O)N2[C@H]1C(=O)O [PENICILLIN G]
2 µg/mL: MIC50 [1]
0.015 µg/mL: MIC [2] | MIC50 [2] | MIC90 [2]
4 µg/mL: MIC90 [1]

C[C@H]1COc2c(N3CCN(C)CC3)c(F)cc3c(=O)c(C(=O)O)cn1c23.C[C@H]1COc2c(N3CCN(C)CC3)c(F)cc3c(=O)c(C(=O)O)cn1c23.O [LEVOFLOXACIN]
0.25 µg/mL: MIC50 [20] | MIC90 [27]
16 µg/mL: MIC90 [10] | MIC90 [11] | MIC90 [25] | MIC90 [26]
0.5 µg/mL: MIC50 [16] | MIC50 [18]
0.06 µg/mL: MIC50 [3] | MIC50 [4] | MIC50 [5] | MIC50 [6] | MIC50 [7] | MIC50 [8] | MIC90 [8] | MIC50 [9] | MIC50 [12] | MIC50 [17] | MIC50 [19] | MIC50 [21] | MIC50 [22] | MIC50 [23] | MIC50 [24] | MIC50 [28] | MIC50 [29]
0.015 µg/mL: MIC90 [15] | MIC50 [27]
8 µg/mL: MIC90 [3] | MIC90 [4] | MIC90 [5] | MIC90 [6] | MIC90 [7] | MIC90 [9] | MIC90 [12] | MIC90 [17] | MIC90 [19] | MIC90 [21] | MIC90 [22] | MIC90 [23] | MIC90 [24] | MIC90 [28] | MIC90 [29]
4 ng/mL: MIC50 [15]
1 µg/mL: MIC50 [14] | MIC90 [14]
2 µg/mL: MIC50 [10] | MIC50 [11] | MIC90 [18] | MIC50 [25] | MIC50 [26]
8 ng/mL: MIC50 [13] | MIC90 [13]
32 µg/mL: MIC90 [16] | MIC90 [20]

CC(=O)NC[C@H]1CN(c2ccc(N3CCOCC3)c(F)c2)C(=O)O1 [LINEZOLID]
32 µg/mL: MIC [31] | MIC [36] | MIC [37] | MIC [41]
4 µg/mL: MIC90 [30]
8 µg/mL: MIC [38]
2 µg/mL: MIC50 [30] | MIC50 [32] | MIC90 [32] | MIC50 [34] | MIC90 [34] | MIC [35] | MIC50 [35] | MIC90 [35] | MIC [14] | MIC50 [14] | MIC90 [14] | MIC50 [18] | MIC90 [18] | MIC50 [20] | MIC90 [20] | MIC [43] | MIC50 [46] | MIC90 [46]
> 32 µg/mL: MIC [42] | MIC [44] | MIC [45]
1 µg/mL: MIC [33] | MIC50 [33] | MIC90 [33] | MIC90 [1] | MIC50 [16] | MIC90 [16] | MIC50 [2] | MIC90 [2] | MIC90 [40]
0.5 µg/mL: MIC50 [1] | MIC [39] | MIC50 [40]

O=C(N[C@H](CO)[C@H](O)c1ccc([N+](=O)[O-])cc1)C(Cl)Cl [CHLORAMPHENICOL]
32 µg/mL: MIC [36] | MIC [37] | MIC [41] | MIC [42]
> 32 µg/mL: MIC [44] | MIC [45]
8 µg/mL: MIC [47] | MIC [38] | MIC [48] | MIC [43]
16 µg/mL: MIC [31]

CC(C)(O/N=C(\C(=O)N[C@@H]1C(=O)N2C(C(=O)[O-])=C(C[n+]3ccccc3)CS[C@H]12)c1csc(N)n1)C(=O)O [CEFTAZIDIME]
> 64 µg/mL: MIC90 [3] | MIC90 [4] | MIC90 [5] | MIC90 [6] | MIC90 [7] | MIC90 [9] | MIC90 [10] | MIC90 [11] | MIC90 [12] | MIC90 [17] | MIC90 [19] | MIC90 [21] | MIC90 [22] | MIC90 [23] | MIC90 [24] | MIC90 [25] | MIC90 [26] | MIC90 [28] | MIC90 [29]
16 µg/mL: MIC50 [10] | MIC50 [11] | MIC50 [25] | MIC50 [26]
0.5 µg/mL: MIC50 [3] | MIC50 [4] | MIC50 [5] | MIC50 [6] | MIC50 [7] | MIC50 [9] | MIC50 [12] | MIC50 [17] | MIC50 [19] | MIC50 [21] | MIC50 [22] | MIC50 [23] | MIC50 [24] | MIC50 [28] | MIC50 [29]

CC1(C)S[C@@H]2[C@H](NC(=O)[C@H](N)c3ccc(O)cc3)C(=O)N2[C@H]1C(=O)O [AMOXICILLIN]
8 µg/mL: MIC90 [8]
32 µg/mL: MIC90 [27]
2 µg/mL: MIC50 [27]
1 µg/mL: MIC50 [8]

CN[C@H](CC(C)C)C(=O)N[C@H]1C(=O)N[C@@H](CC(N)=O)C(=O)N[C@H]2C(=O)N[C@H]3C(=O)N[C@H](C(=O)N[C@H](C(=O)O)c4cc(O)cc(O)c4-c4cc3ccc4O)[C@H](O)c3ccc(c(Cl)c3)Oc3cc2cc(c3O[C@@H]2O[C@H](CO)[C@@H](O)[C@H](O)[C@H]2O[C@H]2C[C@](C)(N)[C@H](O)[C@H](C)O2)Oc2ccc(cc2Cl)[C@H]1O [VANCOMYCIN]
2 µg/mL: MIC90 [33] | MIC90 [40] | MIC50 [20] | MIC90 [20] | MIC [48] | MIC50 [46]
1 µg/mL: MIC90 [32] | MIC50 [33] | MIC50 [35] | MIC90 [35] | MIC [14] | MIC50 [14] | MIC90 [14] | MIC90 [16] | MIC50 [40] | MIC [45]
> 32 µg/mL: MIC50 [30] | MIC90 [30] | MIC [31] | MIC50 [34] | MIC90 [34] | MIC [36] | MIC [37] | MIC [38] | MIC [43]
4 µg/mL: MIC90 [46]
0.5 µg/mL: MIC50 [32] | MIC50 [16]
0.25 µg/mL: MIC50 [1] | MIC90 [1] | MIC [2] | MIC50 [2] | MIC90 [2]
